In US8501695B2, “Tissue kallikrein for the treatment of diseases associated with amyloid protein” (DiaMedica, Inc., priority 2007, dated 2013):

Experiments:
[1] = system: rat mixed cortical cultures (RMCC); test: Aβ1-42 toxicity in rat mixed cortical cultures, neuronal survival (NeuN cell count); type: cell-based; conditions: 1 nM, 5 nM, 10 nM, 50 nM and 100 nM; study arm A, B or C
Procedure: (§1) Whether pre-treatment with tissue kallikrein protects rat mixed cortical cultures against exposure to human amyloid beta peptide (Aβ1-42) was investigated. Cell death was analyzed by LDH-release, an indication of necrosis, and cell viability was also analyzed by neuronal cell count. First (Study Arm A), tissue kallikrein was added to the cells only prior to the Aβ1-42 insult (at −24 h and at −30 min). Whereas in the second part (Study Arm B), tissue kallikrein was added to the cells prior to (−30 min) and also at +24 h after the Aβ1-42 insult. At the +24 h time point, cell culture media were not changed (tissue kallikrein or corresponding amount of vehicle was added to the wells), whereas at −24 h and −30 min time point cell culture media were changed.
(§2) […] Cell Culture. Mixed cortical cultures were prepared from E18 Wistar rat embryos (National Animal Center, Kuopio, Finland). The cortices were dissected out, and the tissue cut to small pieces. The cells were separated by 15-min incubation with DNase and papain. The cells were collected by centrifugation (1500 rpm, 5 min). The tissue was triturated with a pipette and the cells were plated on poly-L-lysine-coated 48-well plates, 300,000 cells/cm^2, in MEM (2 g/L glucose) supplemented with 2 mM glutamine, 0.1 μg/ml gentamicin, 10% heat-inactivated fetal bovine serum (FBS-HI) and 10% heat-inactivated horse serum (HS-HI). After 3-4 h, the media were changed to MEM (2 g/L glucose) supplemented with 2 mM glutamine, 0.1 μg/ml gentamicin, 5% HS-HI. After three days in vitro, media containing MEM (2 g/L glucose) supplemented with glutamine, gentamicin, and 5% of both sera were changed to the cells. On day 6 in vitro, the unwanted cell division was inhibited by adding cytosine arabinoside (10 μM final concentration) for 24 h. The cultures were refed with MEM (2 g/L glucose) supplemented with glutamine, gentamicin, and 5% HS-HI before experiments.
(§3) Aβ1-42 Exposure. Tissue kallikrein (SEQ ID NO:1) was dissolved and further diluted in MEM supplemented with glucose, glutamine, gentamicin, and 5% HS-HI. As a control for total neuronal death, 300 μM N-methyl-D-aspartic acid (NMDA) for 48 h was used, and 10 μM Aβ1-42 for 48 h was used to induce approximately 30-50% cell death. Wells treated with media only served as 0-control. Tissue kallikrein or vehicle was pipetted to the cells −24 h and −30 min before adding 10 μM Aβ1-42 (final concentration). Tissue kallikrein or vehicle was again pipetted to the cells at +24 h after exposure.
Immunocytochemistry for Neuronal Survival. For neuronal counts, the cultures were fixed with 4% paraformaldehyde in 0.01 M PBS for 30 min and washed twice with PBS. The fixed cells were first permeabilized, and non-specific binding blocked by 30 min incubation with blocking buffer containing 1% bovine serum albumin and 0.3% Triton® X-100 in PBS. Anti-neuronal nuclei antibody (anti-NeuN, dilution 1:500, Chemicon, Temecula, Calif.) was used as the primary antibody. The cells were incubated with the primary antibody for 48 h, followed by incubation with a biotinylated secondary antibody (1:200, Vector Labs) for 2 h, and the avidin-biotin-peroxidase complex (ABC-reagent, 1:200, Vector ABC Elite Kit, Vector Labs) for 2 h. The positive cells were visualized using Ni-enhanced DAB as a substrate (DAB Substrate kit, Vector Labs). The NeuN immunopositive neurons were counted using a light microscope. Altogether, 2 fields of each well were counted. The results are shown as percent viable neurons.
Data Analysis. The number of wells per compound concentration used was 6 (n=6). […] Statistical analysis was performed using StatsDirect statistical software. The values were analyzed by one-way ANOVA followed by Dunnet's test (comparison to the vehicle-treated group). Results are presented as mean±standard deviation (SD) and differences are considered to be statistically significant at the P<0.05 level.

[2] = system: rat mixed cortical cultures (RMCC); test: Aβ1-42 toxicity in rat mixed cortical cultures, LDH measurement; type: cell-based; conditions: for LDH release following Aβ1-42 insult: study arm A, B or C
Procedure: as §1, §2, §3
LDH Measurement. After 48 h, the culture media of all wells were collected, and possible cell debris was removed by centrifugation (13,000 rpm for 3 min). A 100 μl aliquot was pipetted into a microtiter plate as duplicates, and equal amount of LDH reagent was pipetted to the wells. The absorbance at 340 nm was measured immediately using a 3 min kinetic measurement protocol in Multiskan ELISA reader (Labsystems, Finland). The change in absorbance/min was determined, which was directly proportional to the released LDH. The remaining supernatant (50 μl) was snap-frozen in dry ice for storage.
Data Analysis. The number of wells per compound concentration used was 6 (n=6). Five concentrations of Tissue kallikrein were studied (0.001, 0.01, 0.1, 1, 10 μg/ml) in both study arms. Statistical analysis was performed using StatsDirect statistical software. The values were analyzed by one-way ANOVA followed by Dunnet's test (comparison to the vehicle-treated group). Results are presented as mean±standard deviation (SD) and differences are considered to be statistically significant at the P<0.05 level.

lysyl-bradykinin [kallidin, reference compound]
cell counts (survival) following Aβ1-42 insult [1]: did not affect cell counts
LDH release following Aβ1-42 insult ([2]; 1 nM, 5 nM, 10 nM, 50 nM and 100 nM): did not alter LDH release
LDH release following Aβ1-42 insult ([2]; 1 μM and 10 μM): did alter LDH release
cell death following Aβ1-42 insult (LDH) ([2]; 100 μM, compared to Aβ1-42 insult alone): significantly potentated cell death
